Source: US5955520A, “Photochromic indeno-fused naphthopyrans” (PPG Industries, Inc., priority 1996, dated 1999)

What was measured:
[1] = photochromic response rates on an optical bench (test squares); format: physicochemical; settings: for ΔOD @ Saturation: UV exposure continued for 20 minutes; for ΔOD @ Saturation / Sensitivity ΔOD/min: polymer test square, 75° F.; for Sensitivity ΔOD/min: first five (5) seconds of UV exposure, expressed per minute, 1.5 times 10^-3 molal; for Bleach Rate T 1/2: time for absorbance to reach one half the highest absorbance after removal of activating light, room temperature (75° F., 23.9° C.)
Description: (§1) Testing was done with the Example 1 and Comparative Example 1 photochromic naphthopyrans incorporated into polymeric samples by the following method. The quantity of naphthopyran calculated to yield a 1.5 times 10^-3 molal solution was added to a flask containing 50 grams of a monomer blend of 4 parts ethoxylated bisphenol A dimethacrylate (BPA 2EO DMA), 1 part poly(ethylene glycol) 600 dimethacrylate, and 0.033 weight percent 2,2'-azobis(2-methyl proprionitrile) (AIBN). The naphthopyran was dissolved into the monomer blend by stirring and gentle heating, if necessary. After a clear solution was obtained, it was poured into a flat sheet mold having the interior dimensions of 2.2 mm×6 inches (15.24 cm)×6 inches (15.24 cm). The mold was sealed and placed in a horizontal air flow, programmable oven set to increase the temperature from 40° C. to 95° C. over a 5 hour interval, hold the temperature at 95° C. for 3 hours and then lower it to 60° C., for at least 2 hours before the end of the curing cycle. After the mold was opened, the polymer sheet was cut using a diamond blade saw into 2 inch (5.1 centimeters) test squares.
The photochromic test squares of Part A were tested for photochromic response rates on an optical bench. Prior to testing on the optical bench, the photochromic test squares were exposed to 365 nanometer ultraviolet light for about 15 minutes to activate the photochromic compounds and then placed into a 76° C. oven for about 15 minutes to bleach the photochromic compounds. The test squares were then cooled to room temperature, exposed to fluorescent room lighting for at least 2 hours and then kept covered for at least 2 hours prior to testing on an optical bench maintained at 75° F. (23.90° C.).
The optical bench comprises a 150 watt Xenon arc lamp, a tungsten lamp, power supplies for both lamps, condensing lenses as needed to maintain collimated light beams from both lamps, a remote controlled shutter, a copper sulfate bath acting as a heat sink for the arc lamp, a Schott WG-320 nm cut-off filter which removes short wavelength radiation, neutral density filter(s), a sample holder in which the sample to be tested is inserted, a photopic filter, light detector, and radiometer assembly, a strip chart recorder, and a means for maintaining the alignment of the aforestated components during testing.
Change in optical density (Δ OD) of a sample was determined by inserting a photochromic test sample in the bleached state into the sample holder, adjusting the transmittance scale to 100%, opening the shutter from the Xenon lamp to provide ultraviolet radiation to change the sample from the bleached state to an activated (darkened) state, measuring the transmittance through the sample. The transmittance was measured by directing a beam of light from the tungsten lamp at a small angle normal to the surface of the sample, through the sample, and to a photopic filter, light detector and radiometer assembly. The photopic filter passes wavelengths such that the detector mimics the response of the human eye and produces output signals that are processed by the radiometer. The change in optical density was calculated according to the formula Δ OD=log(100/%Ta) where %Ta is the percent transmittance in the activated state and the logarithm is to the base 10.
The Δ OD/Min, which represents the sensitivity of the photochromic compound's response to UV light, was measured over the first five (5) seconds of UV exposure, then expressed on a per minute basis. The saturation optical density (OD) was taken under identical conditions as the Δ OD/Min, except UV exposure was continued for 20 minutes. The lambda max (Vis) is the wavelength in the visible spectrum at which the maximum absorption of the activated (colored) form of the photochromic compound in the test square occurs. […]

[2] = UV/Visible spectrophotometer test of photochromic test squares (lambda max, molal absorptivity); format: physicochemical; settings: for λ max Vis (major) / λ max Vis (minor): activated (colored) form; for λ max Vis (major): major peak; for λ max Vis (major) / λ max Vis (minor) / Molal Absorpt. (ε) / λ max UV: test square; for λ max Vis (minor): minor peak; for Molal Absorpt. (ε): at λ max in the UV, ε=A/bm; for λ max UV: ultraviolet wavelength closest to the visible spectrum
Description: as §1
The photochromic test square polymerizates of Example 1 and Comparative Example 1 prepared in Part A were tested in a UV/Visible spectrophotometer to determine the lambda (λ) max (Vis) and the lambda max (UV) wavelengths. The lambda max (Vis) is the wavelength of the visible spectrum at which the maximum absorption of the activated (colored) form of the photochromic compound in a test square occurs. The lambda max (UV) is the wavelength of the ultraviolet range closest to the visible spectrum at which the absorption of the photochromic compound occurs.
The molal absorptivity or molal extinction coefficient (ε) reported in Table 2 is equal to the absorbance of the photochromic compound in a test square at the λ max in the UV (A) divided by the thickness of the test square in centimeters (b) multiplied by the concentration of the photochromic compound in the test square in moles per kilogram (m) according to the formula: ε=A/bm

[3] = in comparison to Comparative Example (CE) 1

| bleach rate, i.e., fade rate (in words) [1] | ΔOD @ Saturation [1] | Sensitivity ΔOD/min [1] | sensitivity, i.e., coloration rate (in words) [1, 3] | Δ OD at saturation, i.e., activated intensity (in words) [1, 3] | Bleach Rate T 1/2 [1] [min] | λ max Vis (major) [2] [nm] | λ max Vis (minor) [2] [nm] | Molal Absorpt. (ε) [2] | molal absorptivity (ε) in the UV spectrum (in words) ([2]; in comparison to CE 1) | λ max UV [2] [nm] | SMILES | λ max UV and λ max Vis of the major peak (in words) ([2]; in comparison to CE 1, bathochromic shift) |
| --- | --- | --- | --- | --- | --- | --- | --- | --- | --- | --- | --- | --- |
| acceptable bleach rate | 1.0 | 0.34 ΔOD/min | greater sensitivity | higher Δ OD at saturation | 5.63 | 536 | 425 | 12,218 | higher molal absorptivity | 360 | CCOC(=O)CC1(O)c2ccccc2-c2c1c1c(c3ccccc23)OC(c2ccccc2)(c2ccccc2)C=C1 (stereo not shown) [Example 1, 3,3-diphenyl-13-hydroxy-13-(2-oxo-2-ethoxyethyl)-1H-indeno[2,1-f]naphtho[1,2-b] pyran] | higher λ max UV and λ max Vis of the major peak |
|  | 0.68 | 0.19 ΔOD/min |  |  | 3.83 | 482 | 407 | 5709 |  | 346 | COC(=O)c1c2c(c3ccccc3c1-c1ccccc1)OC(c1ccccc1)(c1ccccc1)C=C2 [CE 1, 2,2-diphenyl-5-methoxycarbonyl-6-phenyl-[2H]-naphtho[1,2-b]pyran, reference compound] |  |
